Measurements published in patent publication US12281329B2, “Compositions and methods for immune cell modulation in adoptive immunotherapies” (Fate Therapeutics, Inc., priority 2016, dated 2025).

System: NK cells
Test: Feeder-free culture of CD3/CD19 depleted PBMC with IL-15 and GSK3 inhibitor: NK cell expansion and phenotype
Type: cell-based, human
Description: NK Cell Isolation. Healthy adult donor blood was obtained from commercial sources or from GCRC core laboratory of Scripps Research Institute, La Jolla, CA Peripheral blood mononuclear cells (PBMC) were isolated by density gradient centrifugation using Ficoll-Paque PLUS (GE Healthcare: Life Sciences) and then depleted of B and T cells without culturing the PBMC using CD19 Microbeads (Miltenyi Biotec, #130-050-301) and CD3 Microbeads (Miltenyi Biotec, #130-050-101) within 24 to 36 hours according to manufacturer directions.
NK cell culture: CD3/CD19 depleted PBMC (0.5-1×10E6/mL) were cultured in BO medium (2:1 mixture of DMEM, (Corning Cell-Gro #10-017-CV) and Ham's F12 (Corning Cell-Gro #10-080-C) with 10% human AB serum (Valley Biomedical, #HP1022), 100 U/mL penicillin and 100 ug/mL streptomycin (Corning, 30-002-CI), 20 uM 2-mercaptoethanol (Sigma, M3148), 50 uM ethanolamine (Sigma, E0135), 10 ug/mL ascorbic acid (Sigma, A4544), and 1.6 ng/mL sodium selenite (Sigma, S5261). Cells were cultured for 7-8 days (up to four weeks) in medium containing 10 ng/mL recombinant human IL-15 (Life Technologies, PHC9154) with or without GSK3 inhibitor CHIR99021 (BioVision #1677-5), histone lysine methyltransferase inhibitor BIX 01294 (Tocris, 3364), TGF-β1 receptor inhibitor SB-431542 (BioVison, 1674-5), or human interferon alpha (R&D Systems, 11200-1). After culturing, cells were counted using trypan blue or by Cellometer (Nexcelom) and used for flow cytometry and functional assays. Flow cytometry was performed on a BD LSRFortessa and results were analyzed by FlowJo software. Commercially available antibodies to the following surface markers were used for flow cytometry: CD3, CD14, CD16, CD19, CD56, CD57 and NKG2C (BD Biosciences, Biolegend, or R&D Systems). Where indicated, K562 feeder cells were used. Where indicated other modulators and culture reagents were added.
One aspect of the present invention is to provide a method and a system to culture, expand and/or modulate NK cells for adoptive cell therapy. In some embodiments, the method and system for culturing, expanding and/or modulating NK cells is without the use of feeder cells, or feeder cell conditioned medium. Peripheral blood mononuclear cells (PBMC) were isolated from healthy adult donors. The isolated apheresis product (Day 0, pre-depletion; FIG. 2A) was T and B cell depleted using anti-CD19 and CD3 antibodies without pre-depletion culturing (Day 0, post-depletion; FIG. 2B). The post-depletion cell population was then cultured in a feeder free condition with the presence of recombinant human IL-15 (10 ng/mL) and 5 μM CHIR99021, a GSK3 inhibitor, for about 3 to 7 days.

[1] = 7 day culture with GSK3 inhibitor vs cultured without GSK3i
[2] = Day 7 GSK3i culture vs overnight primed

## Cc1c[nH]c(-c2cnc(NCCNc3ccc(C#N)cn3)nc2-c2ccc(Cl)cc2Cl)n1 [CHIR99021]
7 day culture with GSK3i vs 7 day without GSK3i
  percentage of CD57+ cells in the total NK populations: increased
[1]
  CD57+ NK cell number, increase on average: 7-8 fold
  CD57+NKG2C+ NK cell number, increase on average: 7-8 fold
Day 7, IL-15 10 ng/mL + 5 μM CHIR99021, feeder free, about 20% post-depletion Day 0
  NK cell (CD56+CD3−) percentage in population: about 99%
Day 7, IL-15 10 ng/mL + 5 μM CHIR99021, about 1% post-depletion
  remaining T cells (CD56-CD3+) percentage in population: 0.25%
[2]
  cell number of CD57+ NK subset, increase on average: 5-6 fold
  cell number of CD57+NKG2C+ NK subset, increase on average: 5-6 fold
Short term treatment, 16 hours, comparable to vehicle
  frequency of CD57+ cells in the culture: did not generate a higher frequency
